Experiments:
[1] = system: Cochliobolus miyabeanus; test: Test Example 6 Control Test Against Rice Brown Spot Fungus (96 well titer plate growth); format: cell-based; details: 1 μL of 150 ppm DMSO solution + 150 μL YB liquid medium, 23° C., 3 days, absorbance at 550 nm
Procedure: (§1) The term of “non-treated well” in Test Example 4, Test Example 5, and Test Example 6 represents a well wherein a test was carried out under the same conditions as those described in each Test Example except for dispensing DMSO instead of a diluted solution with DMSO comprising the Present compound. Also, the term of “non-treated” in Test Examples 15 to 17 represents a test which was carried out under the same conditions as those described in each Test Example except for dispensing DMSO instead of a diluted solution with DMSO comprising the Present compound. Also, the term of “non-treated leaf disk” in Test Example 7 represents a leaf disk wherein a test was carried out under the same conditions as those described in the Test Example except for dispensing DMSO instead of a diluted solution with DMSO comprising the Present compound. Also, the term of “non-treated” in Test Example 10 and Test Example 11 means that a diluted solution with water of a formulation comprising the Present compound was not sprayed.
Each of the Present compound 17, 33, 36, 37, 39, 40, 41, 42, 43, 44, 48, 49, 50, 51, 52, 53, 62, 68, 69, 70, 71, 76, 77, 79, 80, 81, 82, 83, 84, or 97 was diluted with DMSO to obtain a diluted solution containing 150 ppm of each compound, and 1 μL of the diluted solution was dispensed into a titer plate (96 well), and thereto was then dispensed 150 μL of a YB liquid medium to which spores of Cochliobolus miyabeanus were inoculated in advance. This plate was cultured at 23° C. for 3 days, thereby allowing Cochliobolus miyabeanus to undergo proliferation, and the absorbance at 550 nm of each well of the titer plate was then measured to determine a degree of growth of Cochliobolus miyabeanus. As a result, the degree of growth in the well treated with each of the above Present compounds was 50% or less relative to the degree of growth in the non-treated well.

[2] = system: soybean rust fungus (Phakopsora pachyrhizi) having an amino acid substitution of F129L in a mitochondrial cytochrome b protein; test: Test Example 7 Control Test Against Soybean Rust (leaf disk); format: in vivo; details: 200 ppm, 10 μL per soybean leaf disk (cultivar: Kurosengoku), inoculated after 1 day
Procedure: as §1
A true leaf of a soybean (cultivar: Kurosengoku) was cut into a diameter of 1 cm to prepare each leaf disk. To each well of a 24 well microplate was dispensed 1 mL of an agar medium (agar concentration 1.2%), and then one of said leaf disk was placed on the agar medium in each well. To a mixture of Sorpol (registered trademark) 1200KX (0.5 μL), DMSO (4.5 μL), and xylene (5 μL) was added a DMSO solution (20 μL) comprising a test compound (10000 ppm), and the resulting mixture was mixed. The resulting mixture was diluted with ion exchange water to prepare a mixture comprising a prescribed concentration of the test compound.
The resulting mixture was sprayed into each leaf disk at a ratio of 10 μL per leaf disk. After 1 day, an aqueous suspension of spores of soybean rust fungus (Phakopsora pachyrhizi) having an amino acid substitution of F129L in a mitochondrial cytochrome b protein (1.0×10^5/mL) was inoculated by spraying on each leaf disk. After the inoculation, the microplate was placed into an artificial climate chamber (Lighting: 6 hours, Lights-out: 18 hours, Temperature: 23° C., Humidity: 60%). After 1 day, the leaf disks were air-dried until water droplets on the surfaces of the leaf disks disappeared, and the microplate was placed into the artificial climate chamber again for 12 days. Then, lesion area of soybean rust was investigated. As a result, when the prescribed concentration was 200 ppm, each lesion area of leaf disk treated with any one of the Present compound 9, 10, 11, 13, 14, 15, 16, 17, 18, 20, 32, 33, 34, 35, 36, 37, 38, 39, 40, 42, 43, 44, 47, 48, 49, 50, 51, 52, 53, 55, 56, 57, 58, 62, 63, 64, 65, 66, 67, 68, 69, 70, 71, 73, 74, 75, 76, 77, 78, 79, 80, 81, 82, 83, 84, 85, 86, 87, 88, 89, 90, 91, 92, 93, 94, 95, 96, 97, 98, 99, 100, 101, or 102 as the test compound was 30% or less relative to the lesion area of non-treated leaf disk.

[3] = system: Phakopsora pachyrhizi; test: Test Example 11 Control Test Against Soybean Rust (pot test, spraying before inoculation); format: in vivo; details: 200 ppm foliage spray, soybeans (Kurosengoku), inoculated after 2 to 5 days
Procedure: as §1
A plastic pot was filled with soil, soybeans (cultivar: Kurosengoku) were seeded thereto, and cultured in a greenhouse for 10 to 14 days. The Present compound 9, 10, 11, 13, 14, 15, 17, 18, 20, 21, 22, 23, 26, 27, 33, 34, 35, 36, 37, 38, 39, 40, 41, 42, 43, 44, 46, 47, 53, 54, 55, 56, 57, 58, 66, 67, 68, 69, 70, 71, 73, 74, 75, 76, 77, 78, 79, 80, 81, 82, 83, 84, 85, 86, 87, 88, 89, 90, 91, 92, 93, 94, 95, 96, 97, 98, 99, 100, 101, or 102 formulated according to the method described in the Formulation Example 1 was mixed with water in such a way that the concentration thereof was 200 ppm, and the resulting mixture was sprayed to foliage of the above soybeans so as to adequately adhere onto the surfaces of leaves of the above soybeans. After spraying the mixture, the soybeans were air-dried. After 2 to 5 days, an aqueous suspension of spores of Phakopsora pachyrhizi was inoculated by spraying to the soybeans. After the inoculation, the soybeans were placed in a greenhouse at 23° C. in daytime and at 20° C. in nighttime under a humid condition for 1 to 2 day(s), then cultured in a greenhouse for 12 days, and then a lesion area was investigated. As a result, the lesion area in the soybeans treated with each of the above Present compound was 30% or less relative to the lesion area in the non-treated soybeans.

[4] = system: Phakopsora pachyrhizi; test: Test Example 15 Control Test Against Soybean Rust Fungus (spore germination, 96 well titer plate); format: cell-based; details: treatment concentration 1 ppm, 23° C., several hours
Procedure: as §1
The Present compound was diluted with DMSO to obtain a diluted solution containing 150 ppm of the compound, and 1 μL of the diluted solution was dispensed into a titer plate (96 well), and thereto was then dispensed 149 μL of an aqueous suspension (1.0×10^4/mL) of spores of Phakopsora pachyrhizi to which spores of Phakopsora pachyrhizi were suspended in advance. This plate was cultured at 23° C. for several hours, and then germinated spores of Phakopsora pachyrhizi were counted. As a result, when the treatment concentration was 1 ppm, the number of germinated spores in each well comprising any one of the Present compound 1, 11, 17, 18, 20, 23, 30, 33, 34, 35, 36, 37, 38, 39, 40, 41, 42, 43, 44, 46, 47, 48, 49, 50, 51, 52, 53, 54, 55, 56, 57, 58, 62, 63, 64, 65, 66, 67, 68, 69, 70, 71, 72, 73, 74, 75, 76, 77, 78, 79, 80, 81, 82, 83, 84, 85, 86, 87, 88, 89, 90, 91, 92, 93, 94, 95, 96, 97, 98, 99, 100, 101, or 102 as the test compound was 50% or less relative to the number of germinated spores in the non-treated well.

Row | SMILES | degree of growth relative to the degree of growth in the non-treated well [1] [%] | lesion area relative to the lesion area of non-treated leaf disk [2] [%] | lesion area relative to the lesion area in the non-treated soybeans [3] [%] | number of germinated spores relative to the non-treated well [4] [%]
1 | O=S(=O)(c1cccs1)n1ccc(-c2ccc(C3CC3)cc2)n1 [compound 42] | ≤ 50 | ≤ 30 | ≤ 30 | ≤ 50
2 | O=S(=O)(c1cccs1)n1ccc(-c2ccc(Br)c(F)c2)n1 [compound 40] | ≤ 50 | ≤ 30 | ≤ 30 | ≤ 50
3 | O=S(=O)(c1cccs1)n1ccc(-c2ccc(C(F)(F)F)c(F)c2)n1 [compound 39] | ≤ 50 | ≤ 30 | ≤ 30 | ≤ 50
4 | Cc1ccc(-c2ccn(S(=O)(=O)c3cccs3)n2)cc1 [compound 43] | ≤ 50 | ≤ 30 | ≤ 30 | ≤ 50
5 | O=S(=O)(c1cccs1)n1ccc(-c2ccc(I)cc2)n1 [compound 84] | ≤ 50 | ≤ 30 | ≤ 30 | ≤ 50
6 | O=S(=O)(c1ccco1)n1ccc(-c2ccc(I)cc2)n1 [compound 82] | ≤ 50 | ≤ 30 | ≤ 30 | ≤ 50
7 | Cc1ccc(-c2ccn(S(=O)(=O)c3ccoc3)n2)cc1F [compound 70] | ≤ 50 | ≤ 30 | ≤ 30 | ≤ 50
8 | O=S(=O)(c1cccnc1)n1ccc(-c2ccc(Br)c(F)c2)n1 [compound 53] | ≤ 50 | ≤ 30 | ≤ 30 | ≤ 50
9 | CSc1ccc(-c2ccn(S(=O)(=O)c3cccs3)n2)cc1 [compound 41] | ≤ 50 | – | ≤ 30 | ≤ 50
10 | O=S(=O)(c1cccs1)n1ccc(-c2ccc3nsnc3c2)n1 [compound 68] | ≤ 50 | ≤ 30 | ≤ 30 | ≤ 50
11 | O=S(=O)(c1cccs1)n1ccc(-c2cc(F)c(Br)c(F)c2)n1 [compound 33] | ≤ 50 | ≤ 30 | ≤ 30 | ≤ 50
12 | O=S(=O)(c1ccoc1)n1ccc(-c2ccc(I)cc2)n1 [compound 83] | ≤ 50 | ≤ 30 | ≤ 30 | ≤ 50
13 | Cc1ccc(-c2ccn(S(=O)(=O)c3cccnc3)n2)cc1F [compound 97] | ≤ 50 | ≤ 30 | ≤ 30 | ≤ 50
14 | O=S(=O)(c1ccco1)n1ccc(-c2cc(F)c(Br)c(F)c2)n1 [compound 37] | ≤ 50 | ≤ 30 | ≤ 30 | ≤ 50
15 | O=S(=O)(c1ccoc1)n1ccc(-c2ccc(Br)c(F)c2)n1 [compound 52] | ≤ 50 | ≤ 30 | – | ≤ 50
16 | Cc1ccc(-c2ccn(S(=O)(=O)c3ccco3)n2)cc1F [compound 69] | ≤ 50 | ≤ 30 | ≤ 30 | ≤ 50
17 | O=S(=O)(c1ccoc1)n1ccc(-c2cc(F)c(Br)c(F)c2)n1 [compound 36] | ≤ 50 | ≤ 30 | ≤ 30 | ≤ 50
18 | O=S(=O)(c1ccoc1)n1ccc(-c2ccc(Br)cc2)n1 [compound 51] | ≤ 50 | ≤ 30 | – | ≤ 50

— patent US20260344668A1, “PHENYLPYRAZOLE COMPOUND, AND PLANT DISEASE CONTROL METHOD” (priority 2022, published 2026)
